Experiments:
Assay type in all cases: in vivo
[1] = tested on: barnyardgrass (Echinochloa crus-galli); test: Test A pre-/postemergence plant response; conditions: for Barnyardgrass plant response rating: visual injury, 0 to 100 scale (0 no effect, 100 complete control), approx. ten days
In short: (§1)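 Both pre- and postemergence treatments are applied simultaneously, using chemicals formulated in a non-phytotoxic solvent mixture with surfactant. Postemergence plants are 2–10 cm high with one to two leaves. After approximately ten days in a greenhouse, injury is scored visually from 0 (none) to 100 (complete control) relative to untreated plants.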

corn (Zea mays) = test: Test A pre-/postemergence plant response; conditions: for Corn plant response rating: visual injury, 0 to 100 scale (0 no effect, 100 complete control), approx. ten days
In short: as §1

[2] = tested on: giant foxtail (Setaria faberii); test: Test A pre-/postemergence plant response
In short: as §1

[3] = tested on: large crabgrass (Digitaria sanguinalis); test: Test A pre-/postemergence plant response; conditions: for Crabgrass, Large plant response rating: visual injury, 0 to 100 scale (0 no effect, 100 complete control), approx. ten days
In short: as §1

[4] = tested on: morningglory (Ipomoea spp.); test: Test A pre-/postemergence plant response
In short: as §1

[5] = tested on: pigweed (Amaranthus retroflexus); test: Test A pre-/postemergence plant response
In short: as §1

[6] = tested on: velvetleaf (Abutilon theophrasti); test: Test A pre-/postemergence plant response
In short: as §1

[7] = tested on: wheat (Triticum aestivum); test: Test A pre-/postemergence plant response
In short: as §1

[8] = tested on: barnyardgrass (Echinochloa crus-galli); test: Test B flooded paddy test; conditions: for Plant response rating, Flood, Barnyardgrass: 250 g ai/ha, flooded paddy test, visual rating on 0 to 100 scale (0 no effect, 100 complete control) after 13 to 15 days; for Plant response rating, Barnyardgrass: Flood (flooded paddy test), 13 to 15 days; for Barnyardgrass plant response rating: Flood, 31 g ai/ha, scale 0 to 100 (0 no effect, 100 complete control)
In short: (§2)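 Rice, umbrella sedge, ducksalad and barnyardgrass were grown to the 2-leaf stage, flooded to 3 cm, and compound was applied directly to the paddy water, with that depth kept throughout. After 13 to 15 days in the greenhouse, plants were visually rated against controls on a 0 (no effect) to 100 (complete control) scale.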

[9] = tested on: ducksalad (Heteranthera limosa); test: Test B flooded paddy test; conditions: for Plant response rating, Flood, Ducksalad: 250 g ai/ha, flooded paddy test, visual rating on 0 to 100 scale (0 no effect, 100 complete control) after 13 to 15 days; for Plant response rating, Ducksalad: Flood (flooded paddy test), 13 to 15 days; for Ducksalad plant response rating: Flood, 31 g ai/ha, scale 0 to 100 (0 no effect, 100 complete control)
In short: as §2

rice (Oryza sativa) = test: Test B flooded paddy test; conditions: for Plant response rating, Flood, Rice: 250 g ai/ha, flooded paddy test, visual rating on 0 to 100 scale (0 no effect, 100 complete control) after 13 to 15 days; for Plant response rating, Rice: Flood (flooded paddy test), 13 to 15 days; for Rice plant response rating: Flood, 31 g ai/ha, scale 0 to 100 (0 no effect, 100 complete control)
In short: as §2

[10] = tested on: umbrella sedge (Cyperus difformis); test: Test B flooded paddy test; conditions: for Plant response rating, Flood, Sedge, Umbrella: 250 g ai/ha, flooded paddy test, visual rating on 0 to 100 scale (0 no effect, 100 complete control) after 13 to 15 days; for Plant response rating, Sedge, Umbrella: Flood (flooded paddy test), 13 to 15 days; for Sedge, Umbrella plant response rating: Flood, 31 g ai/ha, scale 0 to 100 (0 no effect, 100 complete control)
In short: as §2

[11] = Postemergence, 125 g ai/ha, 0 to 100 scale where 0 is no effect and 100 is complete control
[12] = Preemergence, 125 g ai/ha, 0 to 100 scale, 0 = no effect, 100 = complete control
[13] = Preemergence, 500 g ai/ha, 0 to 100 scale, 0 = no effect, 100 = complete control
[14] = Postemergence, 500 g ai/ha, visual injury, 0 to 100 scale (0 no effect, 100 complete control), approx. ten days
[15] = 62 g ai/ha, scale of 0 to 100 where 0 is no effect and 100 is complete control
[16] = 125 g ai/ha, scale 0 to 100, 0 is no effect, 100 is complete control
[17] = Preemergence, 125 g ai/ha, 0 to 100 scale where 0 is no effect and 100 is complete control, approximately ten days
[18] = Postemergence, 125 g ai/ha, visual injury, 0 to 100 scale (0 no effect, 100 complete control), approx. ten days

CCCn1c(-c2ccco2)ncc(C(=O)C2=C(O)C3CCC(C3)C2=O)c1=O (stereo not drawn) [Compound 230]
0: Plant response rating, Corn (corn (Zea mays); [11]) | Plant response rating, Corn (corn (Zea mays); [12]) | Plant response rating, Corn (corn (Zea mays); [13]) | Plant response rating, Morningglory [4, 12] | Plant response rating, Wheat [7, 11] | Wheat plant response rating [7, 14] | Plant response rating, Wheat [7, 12] | Plant response rating, Wheat [7, 13] | Plant response rating, Barnyardgrass [8, 15] | Barnyardgrass plant response rating [8] | Plant response rating, Flood, Ducksalad [9] | Plant response rating, Ducksalad [9, 15] | Plant response rating, Ducksalad [9, 16] | Ducksalad plant response rating [9] | Rice plant response rating (rice (Oryza sativa)) | Sedge, Umbrella plant response rating [10]
45: Plant response rating, Flood, Rice (rice (Oryza sativa))
30: Plant response rating, Foxtail, Giant [2, 11] | Plant response rating, Crabgrass, Large [3, 12] | Plant response rating, Rice (rice (Oryza sativa); [16]) | Plant response rating, Sedge, Umbrella [10, 15]
70: Plant response rating, Barnyardgrass [1, 11] | Plant response rating, Morningglory [4, 11]
90: Barnyardgrass plant response rating ([1]; Postemergence, 500 g ai/ha) | Crabgrass, Large plant response rating ([3]; Postemergence, 500 g ai/ha) | Plant response rating, Crabgrass, Large [3, 13] | Morningglory plant response rating [4, 14] | Pigweed plant response rating [5, 14]
75: Plant response rating, Flood, Sedge, Umbrella [10]
60: Plant response rating, Velvetleaf [6, 12]
20: Corn plant response rating (corn (Zea mays); Postemergence, 500 g ai/ha) | Plant response rating, Morningglory [4, 13] | Plant response rating, Barnyardgrass [8, 16] | Plant response rating, Rice (rice (Oryza sativa); [15])
40: Plant response rating, Foxtail, Giant [2, 12] | Plant response rating, Flood, Barnyardgrass [8] | Plant response rating, Sedge, Umbrella [10, 16]
80: Plant response rating, Barnyardgrass [1, 13] | Plant response rating, Crabgrass, Large [3, 11] | Plant response rating, Pigweed [5, 11] | Plant response rating, Pigweed [5, 13] | Plant response rating, Velvetleaf [6, 13]
100: Plant response rating, Velvetleaf [6, 11] | Velvetleaf plant response rating [6, 14]
50: Foxtail, Giant plant response rating [2, 14] | Plant response rating, Foxtail, Giant [2, 13]
10: Plant response rating, Barnyardgrass [1, 12]

O=C(C1=C(O)C2CCC(C2)C1=O)c1cnc(-c2cc(F)cc(F)c2)n(-c2ccccc2)c1=O (stereo not drawn) [Compound 246]
65: Plant response rating, Flood, Rice (rice (Oryza sativa)) | Plant response rating, Rice (rice (Oryza sativa); [16])
100: Barnyardgrass plant response rating ([1]; Postemergence, 500 g ai/ha) | Plant response rating, Barnyardgrass [1, 13] | Foxtail, Giant plant response rating [2, 14] | Crabgrass, Large plant response rating ([3]; Postemergence, 500 g ai/ha) | Plant response rating, Crabgrass, Large [3, 17] | Plant response rating, Crabgrass, Large [3, 13] | Morningglory plant response rating [4, 14] | Pigweed plant response rating [5, 14] | Plant response rating, Pigweed [5, 17] | Plant response rating, Pigweed [5, 13] | Plant response rating, Velvetleaf [6, 18] | Velvetleaf plant response rating [6, 14] | Plant response rating, Velvetleaf [6, 13] | Plant response rating, Flood, Ducksalad [9] | Plant response rating, Ducksalad [9, 15] | Plant response rating, Ducksalad [9, 16] | Plant response rating, Flood, Sedge, Umbrella [10] | Plant response rating, Sedge, Umbrella [10, 16]
60: Plant response rating, Morningglory [4, 13] | Plant response rating, Flood, Barnyardgrass [8]
70: Plant response rating, Barnyardgrass [1, 11] | Plant response rating, Crabgrass, Large [3, 11]
10: Plant response rating, Barnyardgrass [1, 17]
80: Plant response rating, Foxtail, Giant [2, 18]
30: Plant response rating, Rice (rice (Oryza sativa); [15])
90: Corn plant response rating (corn (Zea mays); Postemergence, 500 g ai/ha) | Plant response rating, Foxtail, Giant [2, 17] | Plant response rating, Foxtail, Giant [2, 13] | Plant response rating, Morningglory [4, 18] | Plant response rating, Pigweed [5, 18] | Plant response rating, Velvetleaf [6, 17]
85: Ducksalad plant response rating [9] | Plant response rating, Sedge, Umbrella [10, 15]
0: Plant response rating, Corn (corn (Zea mays); [11]) | Plant response rating, Corn (corn (Zea mays); [17]) | Plant response rating, Wheat [7, 18] | Plant response rating, Wheat [7, 17] | Plant response rating, Barnyardgrass [8, 15] | Barnyardgrass plant response rating [8] | Rice plant response rating (rice (Oryza sativa)) | Sedge, Umbrella plant response rating [10]
50: Plant response rating, Corn (corn (Zea mays); [13]) | Wheat plant response rating [7, 14] | Plant response rating, Wheat [7, 13]
20: Plant response rating, Morningglory [4, 17] | Plant response rating, Barnyardgrass [8, 16]

CCOCCn1c(-c2cc(F)cc(F)c2)ncc(C(=O)C2=C(O)CCCC2=O)c1=O [Compound 182]
85: Plant response rating, Ducksalad [9, 16]
75: Plant response rating, Sedge, Umbrella [10, 16]
80: Foxtail, Giant plant response rating [2, 14] | Plant response rating, Foxtail, Giant [2, 13] | Plant response rating, Crabgrass, Large [3, 11] | Plant response rating, Morningglory [4, 13] | Plant response rating, Pigweed [5, 11]
50: Plant response rating, Foxtail, Giant [2, 11] | Plant response rating, Foxtail, Giant [2, 12] | Wheat plant response rating [7, 14] | Plant response rating, Wheat [7, 13] | Sedge, Umbrella plant response rating [10]
100: Plant response rating, Crabgrass, Large [3, 12] | Plant response rating, Crabgrass, Large [3, 13] | Plant response rating, Morningglory [4, 11] | Morningglory plant response rating [4, 14] | Pigweed plant response rating [5, 14] | Plant response rating, Pigweed [5, 13] | Plant response rating, Velvetleaf [6, 11] | Velvetleaf plant response rating [6, 14] | Plant response rating, Velvetleaf [6, 13]
0: Plant response rating, Corn (corn (Zea mays); [11]) | Plant response rating, Corn (corn (Zea mays); [12]) | Plant response rating, Wheat [7, 11] | Plant response rating, Wheat [7, 12] | Plant response rating, Barnyardgrass [8, 16] | Barnyardgrass plant response rating [8] | Plant response rating, Rice (rice (Oryza sativa); [16]) | Rice plant response rating (rice (Oryza sativa))
70: Plant response rating, Barnyardgrass [1, 11] | Plant response rating, Barnyardgrass [1, 12] | Plant response rating, Morningglory [4, 12] | Plant response rating, Velvetleaf [6, 12]
90: Barnyardgrass plant response rating ([1]; Postemergence, 500 g ai/ha) | Plant response rating, Barnyardgrass [1, 13] | Crabgrass, Large plant response rating ([3]; Postemergence, 500 g ai/ha) | Plant response rating, Pigweed [5, 12]
20: Corn plant response rating (corn (Zea mays); Postemergence, 500 g ai/ha) | Plant response rating, Corn (corn (Zea mays); [13])
60: Ducksalad plant response rating [9]

Cc1cccc(-c2ncc(C(=O)C3=C(O)CCCC3=O)c(=O)n2-c2cc(F)ccc2C)c1 [Compound 178]
30: Wheat plant response rating [7, 14]
80: Plant response rating, Barnyardgrass [1, 11] | Foxtail, Giant plant response rating [2, 14] | Crabgrass, Large plant response rating ([3]; Postemergence, 500 g ai/ha) | Pigweed plant response rating [5, 14] | Plant response rating, Flood, Barnyardgrass [8]
70: Corn plant response rating (corn (Zea mays); Postemergence, 500 g ai/ha) | Plant response rating, Crabgrass, Large [3, 13] | Plant response rating, Flood, Rice (rice (Oryza sativa)) | Plant response rating, Rice (rice (Oryza sativa); [16])
10: Plant response rating, Foxtail, Giant [2, 12] | Plant response rating, Crabgrass, Large [3, 12]
0: Plant response rating, Barnyardgrass [1, 12] | Plant response rating, Corn (corn (Zea mays); [11]) | Plant response rating, Corn (corn (Zea mays); [12]) | Plant response rating, Corn (corn (Zea mays); [13]) | Plant response rating, Morningglory [4, 12] | Plant response rating, Pigweed [5, 12] | Plant response rating, Velvetleaf [6, 12] | Plant response rating, Wheat [7, 11] | Plant response rating, Wheat [7, 12] | Plant response rating, Wheat [7, 13] | Rice plant response rating (rice (Oryza sativa))
95: Plant response rating, Flood, Sedge, Umbrella [10] | Plant response rating, Sedge, Umbrella [10, 16]
90: Barnyardgrass plant response rating ([1]; Postemergence, 500 g ai/ha) | Plant response rating, Velvetleaf [6, 11]
40: Plant response rating, Morningglory [4, 13] | Plant response rating, Pigweed [5, 13]
50: Plant response rating, Barnyardgrass [1, 13] | Plant response rating, Foxtail, Giant [2, 11] | Plant response rating, Foxtail, Giant [2, 13] | Plant response rating, Crabgrass, Large [3, 11] | Plant response rating, Morningglory [4, 11]
20: Plant response rating, Barnyardgrass [8, 15] | Barnyardgrass plant response rating [8] | Plant response rating, Rice (rice (Oryza sativa); [15])
60: Plant response rating, Pigweed [5, 11] | Plant response rating, Velvetleaf [6, 13] | Plant response rating, Barnyardgrass [8, 16]
100: Morningglory plant response rating [4, 14] | Velvetleaf plant response rating [6, 14] | Plant response rating, Flood, Ducksalad [9] | Plant response rating, Ducksalad [9, 16]
75: Plant response rating, Ducksalad [9, 15] | Ducksalad plant response rating [9]
55: Sedge, Umbrella plant response rating [10]
85: Plant response rating, Sedge, Umbrella [10, 15]

Reference: US8952024B2, “Herbicidal pyrimidone derivatives” (E I du Pont de Nemours and Company, priority 2009, dated 2015)
